The values that follow come from patent US20170190671A1, “BIS(ARYL)CATECHOL DERIVATIVES AS HERBICIDES” (E I DU PONT DE NEMOURS AND COMPANY, priority 2014, published 2017).

Each structure is given as a SMILES string.

In test [1] the test system is large (Lg) crabgrass (Digitaria sanguinalis). As to the kind of experiment: Test A postemergence. The note with it: 0 to 100 scale. Format: in vivo. The method, boiled down: (§1)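 Injury scores run from 0, no effect, to 100, complete control, judged by eye against untreated plants roughly 10 days after treatment. Chemicals carried a surfactant in a non-phytotoxic solvent and went onto loam–sand soil preemergence or onto one- to two-leaf seedlings postemergence.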

Test [2] deals with morningglory (Ipomoea spp.). Put plainly: Test A postemergence. Format: in vivo. The note with it: 0 to 100 scale. A digest of the protocol:
as §1

In test [3] the test system is velvetleaf (Abutilon theophrasti). Put plainly: Test A postemergence. Format: in vivo. As to conditions: 0 to 100 scale. The method, boiled down: as §1
Test [4] concerns Italian ryegrass (Lolium multiflorum). As to the kind of experiment: Test D preemergence. Format: in vivo. As to conditions: scale 0 to 100. The method, boiled down:
(§2)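 Seeds planted in silt loam soil and sprayed preemergence with test chemical in a non-phytotoxic solvent mixture with surfactant; postemergence plants grown in peat/vermiculite medium and treated at 2–18 cm (1- to 4-leaf stage). Visual rating versus untreated controls after 14 to 21 days, 0 (no effect) to 100 (complete control).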

Test [5] relates to blackgrass (Alopecurus myosuroides). As to the kind of experiment: Test D preemergence. Format: in vivo. The note with it: scale 0 to 100. A digest of the protocol: as §2
The test system of test [6] is canarygrass (Phalaris minor). As to the kind of experiment: Test D preemergence. As to conditions: scale 0 to 100. Format: in vivo. The method, boiled down:
as §2

For test [7], the system named is downy bromegrass (Bromus tectorum). Put plainly: Test D preemergence. Format: in vivo. The note with it: scale 0 to 100. A digest of the protocol: as §2
Test [8] has as its system lambsquarters (Chenopodium album). As to the kind of experiment: Test D preemergence. Type of test: in vivo. As to conditions: scale 0 to 100. The method, boiled down:
as §2

In test [9] the test system is speedwell (bird's-eye speedwell, Veronica persica). Put plainly: Test D preemergence. Format: in vivo. As to conditions: scale 0 to 100. A digest of the protocol: as §2
For test [10], the system named is wild mustard (Sinapis arvensis). Put plainly: Test D preemergence. Format: in vivo. The note with it: scale 0 to 100. A digest of the protocol:
as §2

The test system of test [11] is wild radish (Raphanus raphanistrum). Put plainly: Test D preemergence. Type of test: in vivo. As to conditions: scale 0 to 100. A digest of the protocol:
as §2

For test [12], the system named is winter barley (Hordeum vulgare). As to the kind of experiment: Test D preemergence. Type of test: in vivo. As to conditions: scale 0 to 100. The method, boiled down:
as §2

The test system of test [13] is wild oat (Avenafatua). Put plainly: Test D preemergence. Type of test: in vivo, Avena fatua. As to conditions: scale 0 to 100. The text has this: (§3) Seeds of plant species selected from bluegrass (annual bluegrass, Poa annua), blackgrass (Alopecurus myosuroides), canarygrass (Phalaris minor), chickweed (common chickweed, Stellaria media), cutleaf geranium (Geranium dissectum), galium (catchweed bedstraw, Galium aparine), downy bromegrass (Bromus tectorum), field poppy (Papaver rhoeas), field violet (Viola arvensis), green foxtail (Setaria viridis), deadnettle (henbit deadnettle, Lamium amplexicaule), Italian ryegrass (Lolium multiflorum), kochia (Kochia scoparia), lambsquarters (Chenopodium album), oilseed rape (Brassica napus), pigweed (Amaranthus retroflexus), chamomile (scentless chamomile, Matricaria inodora), Russian thistle (Salsola kali), speedwell (bird's-eye speedwell, Veronica persica), spring barley (Hordeum vulgare), spring wheat (Triticum aestivum), wild buckwheat (Polygonum convolvulus), wild mustard (Sinapis arvensis), wild oat (Avenafatua), wild radish (Raphanus raphanistrum), windgrass (Apera spica-venti), winter barley (Hordeum vulgare), and winter wheat (Triticum aestivum) were planted into a silt loam soil and treated preemergence with test chemicals formulated in a non-phytotoxic solvent mixture which included a surfactant.
(§4) At the same time, these species were planted in pots containing Redi-Earth® planting medium (Scotts Company, 14111 Scottslawn Road, Marysville, Ohio 43041) comprising spaghnum peat moss, vermiculite, wetting agent and starter nutrients and treated with postemergence applications of the test chemicals formulated in the same manner. Plants ranged in height from 2 to 18 cm (1- to 4-leaf stage). Treated plants and controls were maintained in a controlled growth environment for 14 to 21 days after which time all species were compared to controls and visually evaluated. Plant response ratings, summarized in Table D, are based on a scale of 0 to 100 where 0 is no effect and 100 is complete control. A dash (-) response means no test result.

Test [14] has as its system wild oat (Avenafatua). Put plainly: Test D postemergence. Type of test: in vivo, Avena fatua. The note with it: scale 0 to 100.
Text: as §3, §4

Consider `Fc1cccc(Oc2ncc(Cl)cn2)c1Oc1ncc(Cl)cn1` [Compound 21, 2,2′-[[3-fluoro-1,2-phenylene]bis(oxy)]bis[5-chloropyrimidine]], for which the results for the “Plant response rating, Crabgrass, Large” value in [1] (125 g ai/ha) and in test [1] (500 g ai/ha) were 80 and 90, respectively. The “Plant response rating, Morningglory” value in [2] (125 g ai/ha) came to 90; in [2] (500 g ai/ha) it was 100. The “Plant response rating, Velvetleaf” value in [3] (125 g ai/ha) is 90; in [3] (500 g ai/ha), 100.

In the case of `N#Cc1cccc(Oc2ncc(Cl)cn2)c1Oc1ncc(Cl)cn1` [Compound 3, 2,3-bis[(5-chloro-2-pyrimidinyl)oxy]benzonitrile], the “Plant response rating, Crabgrass, Large” value in test [1] (125 g ai/ha) and in test [1] (500 g ai/ha) was 90 throughout. In addition, the “Plant response rating, Morningglory” value in test [2] (125 g ai/ha) and in [2] (500 g ai/ha) was 100 in each case. For the same molecule, the “Plant response rating, Velvetleaf” value in [3] (125 g ai/ha) and in test [3] (500 g ai/ha) was 100 in each case. Also, the “Plant response rating, Ryegrass, Italian” value in test [4] (16 g ai/ha) is 0; in [4] (31 g ai/ha), 0; in test [4] (62 g ai/ha) it was 50; in test [4] (125 g ai/ha), 40. In addition, the “Plant response rating, Blackgrass” value was found to be 0 in [5] (16 g ai/ha), 10 in test [5] (31 g ai/ha), 35 in test [5] (62 g ai/ha) and 70 in test [5] (125 g ai/ha). The “Plant response rating, Canarygrass” value in [6] (16 g ai/ha) turned out to be 0; in [6] (31 g ai/ha), 5; in [6] (62 g ai/ha), 20; in test [6] (125 g ai/ha), 80. Also, the “Plant response rating, Bromegrass, Downy” value in [7] (16 g ai/ha) is reported as 0; in test [7] (31 g ai/ha) it was 0; in test [7] (62 g ai/ha) it was 5; in test [7] (125 g ai/ha) it was 15. The “Plant response rating, Lambsquarters” value was determined as 10 in [8] (16 g ai/ha), 95 in test [8] (31 g ai/ha), 100 in test [8] (62 g ai/ha) and 100 in [8] (125 g ai/ha). Besides, the “Plant response rating, Speedwell” value in test [9] (16 g ai/ha) is listed as 70; in test [9] (31 g ai/ha), 100; in test [9] (62 g ai/ha) it was 100; in test [9] (125 g ai/ha), 100. The “Plant response rating, Mustard, Wild” value in [10] (16 g ai/ha) came to 15; in test [10] (31 g ai/ha), 60; in [10] (62 g ai/ha), 95; in test [10] (125 g ai/ha), 100. Also, the “Plant response rating, Radish, Wild” value amounted to 30 in test [11] (16 g ai/ha), 80 in [11] (31 g ai/ha), 100 in [11] (62 g ai/ha) and 100 in [11] (125 g ai/ha). The “Plant response rating, Barley, Winter” value in test [12] (16 g ai/ha) amounted to 0; in test [12] (31 g ai/ha), 0; in [12] (62 g ai/ha) it was 20; in test [12] (125 g ai/ha) it was 70. Besides, the “Plant response rating, Oat, Wild” value in the test on wild oat (Avenafatua) [13] (16 g ai/ha) was 0; in the test with wild oat (Avenafatua) [13] (31 g ai/ha), 0; with wild oat (Avenafatua) [13] (62 g ai/ha), 0; in the test on wild oat (Avenafatua) [13] (125 g ai/ha) it was 50; in the test with wild oat (Avenafatua) [14] (16 g ai/ha), 15; in the test with wild oat (Avenafatua) [14] (31 g ai/ha), 15. The “Plant response rating, Oat, Wild” value in the test on wild oat (Avenafatua) [14] (62 g ai/ha) stood at 15; in the test on wild oat (Avenafatua) [14] (125 g ai/ha) it was 20.

With `Clc1cnc(Oc2cccc(Br)c2Oc2ncc(Cl)cn2)nc1` [Compound 19, 2,2′-[[3-bromo-1,2-phenylene]bis(oxy)]bis[5-chloropyrimidine]], the “Plant response rating, Crabgrass, Large” value in test [1] (125 g ai/ha) was 70; in test [1] (500 g ai/ha), 90. The figures for the “Plant response rating, Morningglory” value in test [2] (125 g ai/ha) and in test [2] (500 g ai/ha) were 70 and 100, respectively. Also, the “Plant response rating, Velvetleaf” value in test [3] (125 g ai/ha) and in test [3] (500 g ai/ha) was 100 each time.
